Experimental data: US9233978B2, “6-fused heteroaryldihydropyrimidines for the treatment and prophylaxis of hepatitis B virus infection” (Hoffmann-La Roche Inc., priority 2014, dated 2016)
In brackets after ≈: the same amount, converted by molar mass. Where two headings read alike, the source gives them in different places.

What was measured:
[1] = test system: HBV; experiment: Anti-HBV activity in vitro, HepG2.2.15 cells, extracellular HBV DNA by qPCR; type: cell-based; settings: HepG2.2.15 cells, HBV replication inhibited by 50%, extracellular HBV DNA by qPCR, five days after compound treatment, read-out: EC50
Procedure, shortened: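 HBV-producing HepG2.2.15 cells were seeded and left overnight at 37 °C, then treated with half-log serial compound dilutions at a final 0.5% DMSO. After 5 days, viral DNA was extracted from the supernatant and extracellular HBV DNA was quantified by qPCR.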

[2] = test system: HepDE19 cells; experiment: Cytotoxicity in HepDE19 cells (CCK-8) and selectivity index; type: cell-based; settings: for Selectivity index (CC50/EC50): CC50 (HepDE19) value / EC50 (HepG2.2.15) value; for CC50: HepDE19 cells, CCK-8 cell viability, five days after treatment
Text: (§1) HepG2.2.15 and HepDE19 are stably-transfected cell lines containing the HBV genome. Both cell lines are derived from the hepatoblastoma cell line Hep G2 (American Type Culture Collection, ATCC® HB-8065™) by the published procedures described in references: MA Selles et al. Proc. Natl. Acad. Sci. USA 1987, 84, 1005-1009 and H Guo et al. Journal of Virology 2007, 81, 12472-12484, respectively. Both cell lines were maintained in Dulbecco's modified Eagle's medium (DMEM)-F12 medium supplemented with 10% fetal bovine serum, 100 U/mL penicillin, 100 μg/mL streptomycin, and 0.5 mg/mL of G418.
(§2) HepDE19 cells were seeded into 96-well plates (5×10^3 cells per well) and treated with compounds for EC50 determination. Five days after treatment, cell viability was measured by addition of 20 μL of CCK-8 reagent. Two hours after incubation at 37° C., the absorbance at wavelengths of 450 nm and 630 nm (OD450 and OD630) was recorded by a plate reader. The concentration results in the death of 50% of the host cells (CC50) of each compound were determined.
(§3) The relative effectiveness of the compound in inhibiting viral replication compared to inducing cell death was defined as the selectivity index (CC50 value/EC50 value). Based on CC50 and EC50 data, selectivity indexes were determined.

[3] = Human microsomal metabolic stability; type: in vitro ADME; settings: human microsomes 0.5 mg/mL, 1 μM test compound, NADPH, 37° C., pH 7.4, 0-30 minutes
Procedure: Human Microsomes (BD Gentest) were preincubated with test compound for 10 minutes at 37° C. in 100 mM phosphate buffer, pH 7.4. The reactions were initiated by adding NADPH or NADPH regenerating system to give a final incubation volume of 400 μL. For NADPH system, the final incubations contained 1 μM test compound, 0.5 mg/mL liver microsomal protein, 1 mM NADPH in 100 mM phosphate buffer, pH 7.4. For the NADPH regenerating system, the final incubations contained 1 μM test compound, 0.5 mg/mL liver microsomal protein, 3 mM glucose 6-phosphate, 1 mM NADP, 3 mM MgCl2 and 0.05 mg/mL glucose 6-phosphate dehydrogenase in 100 mM phosphate buffer, pH 7.4. After incubation times of 0, 3, 6, 9, 15 and 30 minutes at 37° C., 1 sample was obtained from each time point and 50 μL of each sample was removed and transferred to 150 μL of methanol solution which was maintained at 4° C. and contained 2 μM tolbutamide as internal standard. Following precipitation and centrifugation, the amount of compound remaining in the samples were determined by LC-MS/MS. Controls of no NADPH or no NADPH regenerating system at zero and 30 minutes were also prepared and analyzed.

[4] = Lysa solubility; type: physicochemical; settings: 0.05 M phosphate buffer (pH 6.5); for solubility thermodynamic: phosphate buffer, pH 6.5, aqueous buffer, thermodynamic from solid
Procedure: Samples were prepared in duplicate from 10 mM DMSO stock solutions. After evaporation of DMSO with a centrifugal vacuum evaporator, the residue was solved in 0.05 M phosphate buffer (pH 6.5), stirred for one hour and shook for two hours. After one night, the solution was filtered using a microtiter filter plate. Then the filtrate and its 1/10 dilution were analyzed by direct UV measurement or by HPLC-UV. […] The results were in μg/mL. In case the percentage of sample measured in solution after evaporation divided by the calculated maximum of sample amount was over 80%, the solubility was reported as higher than this value.

[5] = Cytotoxicity in HepDE19 cells (CCK-8) and selectivity index; type: cell-based; settings: human, HepDE19 cells; CCK-8 cell viability; five days after treatment
Text: as §1, §2, §3

[6] = Hepatitis B virus, HepG2.2.15, 120 h

Compound | EC50 [1] [nM] | Selectivity index (CC50/EC50) [2] | CC50 [2] [nM] | Human Microsomal Clearance [3] [mL/min/kg] | Lysa [4] [µg/mL] | EC50 [1, 6] [nM] | CC50 at 5 days [5] [nM] | solubility thermodynamic [4] [µg/mL]
COC(=O)C1=C(CN2CCN3C(=O)N(C4CCC(C(=O)O)C4)C[C@@H]3C2)NC(c2nccs2)=N[C@H]1c1ccc(F)cc1Cl (mixture of isomers) [Example 63, (R)-6-[(S)-2-((1R,3R)-3-Carboxy-cyclopentyl)-3-oxo-hexahydro-imidazo[1,5-a]pyrazin-7-ylmethyl]-4-(2-chloro-4-fluoro-phenyl)-2-thiazol-2-yl-1,4-dihydro-pyrimidine-5-carboxylic acid methyl ester and (R)-6-[(S)-2-((1S,3S)-3-Carboxy-cyclopentyl)-3-oxo-hexahydro-imidazo[1,5-a]pyrazin-7-ylmethyl]-4-(2-chloro-4-fluoro-phenyl)-2-thiazol-2-yl-1,4-dihydro-pyrimidine-5-carboxylic acid methyl ester] | 12 | 7583 | 91000 | 5.3 | >751 |  |  | 
CCOC(=O)C1=C(CN2CCN3C(=O)N(C4CCC(C(=O)O)C4)C[C@@H]3C2)NC(c2nccs2)=N[C@H]1c1cccc(F)c1Cl (mixture of isomers) [Example 64, (R)-6-[(S)-2-((1R,3R)-3-Carboxy-cyclopentyl)-3-oxo-hexahydro-imidazo[1,5-a]pyrazin-7-ylmethyl]-4-(2-chloro-3-fluoro-phenyl)-2-thiazol-2-yl-1,4-dihydro-pyrimidine-5-carboxylic acid ethyl ester and (R)-6-[(S)-2-((1S,3S)-3-Carboxy-cyclopentyl)-3-oxo-hexahydro-imidazo[1,5-a]pyrazin-7-ylmethyl]-4-(2-chloro-3-fluoro-phenyl)-2-thiazol-2-yl-1,4-dihydro-pyrimidine-5-carboxylic acid ethyl ester] | 8 | 8375 | 67000 | 5.6 | >669 |  |  | 
CCOC(=O)C1=C(CN2CCN3C(=O)N(CC4CC4)C[C@@H]3[C@H]2C(=O)O)NC(c2nccs2)=N[C@H]1c1cccc(F)c1Cl (single isomer, unassigned) [Example 97B] |  | >100000 |  |  |  | 0.9 | > 100000 | 
CCOC(=O)C1=C(CN2CCN3C(=O)N(C(C)C)C[C@@H]3C2)NC(c2nccs2)=N[C@H]1c1cccc(F)c1Cl (single isomer, unassigned) [Example 104B] |  | >6750 |  |  |  | 4 | 27000 | 
CCOC(=O)C1=C(CN2CCN3C(=O)N(CC(C)(C)O)C[C@@H]3C2)NC(c2nccs2)=N[C@H]1c1cccc(F)c1Cl (single isomer, unassigned) [Example 106B] |  | 21666 |  |  |  | 3 | 65000 | 
COC(=O)C1=C(CN2CCN3C(=O)OC[C@@H]3C2)NC(c2nccs2)=N[C@H]1c1ccc(F)cc1Cl [Example 4, Methyl (4R)-6-[[(8aS)-3-oxo-5,6,8,8a-tetrahydro-1H-oxazolo[3,4-a]pyrazin-7-yl]methyl]-4-(2-chloro-4-fluoro-phenyl)-2-thiazol-2-yl-1,4-dihydropyrimidine-5-carboxylate] |  | 23872 |  |  |  | 3 | 79000 | 
CCOC(=O)C1=C(CN2CCN3C(=O)NC[C@@H]3C2)NC(c2nccs2)=N[C@H]1c1ccc(F)cc1Br [Example 14, Ethyl (4R)-6-[[(8aR)-3-oxo-1,2,5,6,8,8a-hexahydroimidazo[1,5-a]pyrazin-7-yl]methyl]-4-(2-bromo-4-fluoro-phenyl)-2-thiazol-2-yl-1,4-dihydropyrimidine-5-carboxylate] |  | 13016 |  |  |  | 2 | 23000 | 
CCOC(=O)C1=C(CN2CCN3C(=O)N(CCOCC(=O)O)CC3C2)NC(c2nccs2)=N[C@H]1c1cccc(F)c1Cl (stereo partly drawn) [Example 67, 2-[2-[7-[[(4R)-4-(2-chloro-3-fluoro-phenyl)-5-ethoxycarbonyl-2-thiazol-2-yl-1,4-dihydropyrimidin-6-yl]methyl]-3-oxo-5,6,8,8a-tetrahydro-1H-imidazo[1,5-a]pyrazin-2-yl]ethoxy]acetic acid] |  |  |  | 4.7 |  | 438 |  | > 794
CCOC(=O)C1=C(CN2CCN3C(=O)N(CCCOCC(=O)O)CC3C2)NC(c2nccs2)=N[C@H]1c1cccc(F)c1Cl (stereo partly drawn) [Example 68, 2-[3-[7-[[(4R)-4-(2-chloro-3-fluoro-phenyl)-5-ethoxycarbonyl-2-thiazol-2-yl-1,4-dihydropyrimidin-6-yl]methyl]-3-oxo-5,6,8,8a-tetrahydro-1H-imidazo[1,5-a]pyrazin-2-yl]propoxy]acetic acid] |  |  |  | 4.5 |  | 143 |  | > 794
COC(=O)C1=C(CN2CCN3C(=O)N(C4CCC(C(=O)O)CC4)C[C@@H]3C2)NC(c2nccs2)=N[C@H]1c1ccc(F)cc1Cl (stereo partly drawn) [Example 72, 4-[(8aS)-7-[[(4R)-4-(2-chloro-4-fluoro-phenyl)-5-methoxycarbonyl-2-thiazol-2-yl-1,4-dihydropyrimidin-6-yl]methyl]-3-oxo-5,6,8,8a-tetrahydro-1H-imidazo[1,5-a]pyrazin-2-yl]cyclohexanecarboxylic acid] |  |  |  | 5.2 |  | 9 |  | 551 (≈ 873 µM)
COC(=O)C1=C(CN2CCN3C(=O)N(CC(C)(C)C(=O)O)C[C@@H]3C2)NC(c2nccs2)=N[C@H]1c1ccccc1Cl [Example 74, 3-[(8aS)-7-[[(4R)-4-(2-chlorophenyl)-5-methoxycarbonyl-2-thiazol-2-yl-1,4-dihydropyrimidin-6-yl]methyl]-3-oxo-5,6,8,8a-tetrahydro-1H-imidazo[1,5-a]pyrazin-2-yl]-2,2-dimethyl-propanoic acid] |  |  |  | 1.0 |  | 36 |  | > 716
CCOC(=O)C1=C(CN2CCN3C(=O)N(CC(OC)C(=O)O)C[C@@H]3C2)NC(c2nccs2)=N[C@H]1c1cccc(F)c1Cl (stereo partly drawn) [Example 78, 3-[(8aS)-7-[[(4R)-4-(2-chloro-3-fluoro-phenyl)-5-ethoxycarbonyl-2-thiazol-2-yl-1,4-dihydropyrimidin-6-yl]methyl]-3-oxo-5,6,8,8a-tetrahydro-1H-imidazo[1,5-a]pyrazin-2-yl]-2-methoxy-propanoic acid] |  |  |  | 6.7 |  | 387 |  | > 793
COC(=O)C1=C(CN2CCN3C(=O)N(CCCCC(=O)O)C[C@@H]3C2)NC(c2nccs2)=N[C@H]1c1ccc(F)cc1Cl [Example 80, 5-[(8aS)-7-[[(4R)-4-(2-chloro-4-fluoro-phenyl)-5-methoxycarbonyl-2-thiazol-2-yl-1,4-dihydropyrimidin-6-yl]methyl]-3-oxo-5,6,8,8a-tetrahydro-1H-imidazo[1,5-a]pyrazin-2-yl]pentanoic acid] |  |  |  | 8.3 |  | 32 |  | > 616
